Test results taken from patent publication EP1751175B1, “INTERLEUKIN-1 RECEPTOR ANTAGONISTS, COMPOSITIONS, AND METHODS OF TREATMENT” (VALORISATION-RECHERCHE, Société en Commandite, priority 2004, dated 2005).
Where a SMILES comes first, the peptide text is derived from it. Where no end group is shown, it is not given here. [ ]: non-standard residue; d: D form.

Experiments:
rats = test: TNBS-induced inflammatory bowel disease model in rats, 48 h: MPO activity, macroscopic score, histologic score (Table 3: 1 no injury to 5 marked denudation); assay type: in vivo
Method: Colon inflammation was induced by intra-rectal/colon administration of the hapten trinitrobenzene sulphonic acid (TNBS) as described in Example 4. Two hours prior to TNBS administration, peptides, peptidomimetics or 0.9% saline were administered intravenously (iv) via the caudal vein (various concentrations of mg/kg/d) (total volume of 0.3ml). […] A third group (control) was not injected with TNBS. For intermittent administration, fifteen minutes after TNBS administration, 101.10 (0.25-1 mg/kg), 101.107 (0.2 mg/kg), 101.113 (0.05-1 mg/kg) were administered by intermittent intraperitoneal injection (ip). Also, these IL-1R antagonists were given twice a day (BID); Remicade® (anti-TNFα) (10 mg/kg) and dexamethasone (0.75 mg/kg) were administered intraperitoneally but only once a day (qd). The intrarectal administration (ir) of 101.10, 101.113 (1 and 2.5 mg/kg), and 5-ASA (50 mg/kg) was done one hour after TNBS administration, and twice a day, except for 5-ASA which is once a day. Finally, 101.10 (1-5 mg/kg) was also administered orally by gavage (po), twice a day. Forty-eight hours after administration of TNBS, rats were killed by CO2 inhalation. Colon was removed and assessed macroscopically (adhesions, ulcerations, discoloration and bleeding) and histologically (neutrophil infiltration, epithelial injury, crypt distortion and ulcerations). One to seven animals per group were studied, according to treatments. Myeloperoxidase (MPO) activity was measured on tissue lysates.
TABLE 3: Histological Injury Scoring System

TF-1 cells = target: T1, TF-1 cells (Homo sapiens, UniProt P14778+Q9NPH3); test: IL-1ß-induced TF-1 proliferation; assay type: cell-based; settings: Table 5; for Emax: TF-1
T1 sequence (P14778 18-569): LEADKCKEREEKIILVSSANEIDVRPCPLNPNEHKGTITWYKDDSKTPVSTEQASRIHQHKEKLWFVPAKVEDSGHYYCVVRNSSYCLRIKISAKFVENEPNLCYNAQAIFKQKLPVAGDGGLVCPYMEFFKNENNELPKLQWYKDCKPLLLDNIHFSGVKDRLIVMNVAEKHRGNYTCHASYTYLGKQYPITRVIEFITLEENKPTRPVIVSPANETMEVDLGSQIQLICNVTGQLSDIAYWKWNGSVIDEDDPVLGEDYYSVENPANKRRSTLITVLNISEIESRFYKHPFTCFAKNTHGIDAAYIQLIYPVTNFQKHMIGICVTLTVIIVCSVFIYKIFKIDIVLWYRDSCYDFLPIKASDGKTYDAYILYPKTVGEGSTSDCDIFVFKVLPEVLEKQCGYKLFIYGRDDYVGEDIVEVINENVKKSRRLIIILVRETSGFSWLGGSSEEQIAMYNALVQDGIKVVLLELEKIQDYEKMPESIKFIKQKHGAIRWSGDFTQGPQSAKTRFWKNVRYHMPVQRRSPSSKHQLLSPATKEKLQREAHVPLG
T1 sequence (Q9NPH3 21-570): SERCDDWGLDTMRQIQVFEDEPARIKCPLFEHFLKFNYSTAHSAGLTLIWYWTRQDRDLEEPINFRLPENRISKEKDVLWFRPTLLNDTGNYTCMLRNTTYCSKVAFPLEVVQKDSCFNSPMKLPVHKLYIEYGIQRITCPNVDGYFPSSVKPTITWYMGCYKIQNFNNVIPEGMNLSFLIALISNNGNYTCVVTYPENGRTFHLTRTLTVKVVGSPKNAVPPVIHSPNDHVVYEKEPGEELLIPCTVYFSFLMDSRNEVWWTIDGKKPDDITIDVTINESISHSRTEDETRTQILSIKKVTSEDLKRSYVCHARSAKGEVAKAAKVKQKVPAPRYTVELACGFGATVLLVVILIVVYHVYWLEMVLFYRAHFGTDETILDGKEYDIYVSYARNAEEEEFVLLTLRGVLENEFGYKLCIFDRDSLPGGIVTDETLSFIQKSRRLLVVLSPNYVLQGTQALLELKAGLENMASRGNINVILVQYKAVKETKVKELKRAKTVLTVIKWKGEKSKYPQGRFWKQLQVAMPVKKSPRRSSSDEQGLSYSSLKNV

piglet pial vessels = test system: piglet pial vessels; set-up: species or system Yorkshire piglets
Method: Ex vivo vasomotor response on brain vessels was performed as described (Li et al., 1996; Hou et al., 2000; Hou et al., 2001; Hou et al., 2003). Brains were removed from Yorkshire piglets. Slices of cortex exposing the pial vessels were pinned to a wax base of a 20 ml bath containing Krebs buffer (pH 7.4) equilibrated with 95% O2, 5% CO2 and maintained at 37°C. Microvessels were visualized and recorded using a video camera mounted on a dissecting microscope. Vascular diameter was measured using a digital image analyzer. Vascular diameter was recorded before and after topical application of pre-constricting agent, U46619 (10^-7 M). After stabilization of preparation, the ligand (IL-1β, 75 ng/ml) was added until stable vasodilation was detected. Peptides were subsequently added at different concentrations from 10^-10 to 10^-5 M. Reversal of vasodilatation was visualized and measured as previously described (Hou, et al. 2000; Hou et al. 2001; Hou et al. 2003); triplicate measurements were conducted on 2 animals.

[1] = test system: IL-1 ß-induced proliferation and PGE2 synthesis; test: Structure vs activity summary of Table 4 (proliferation and PGE2 synthesis, not separated); assay type: cell-based; settings: Table 4, derivatives of TTI-101.107
[2] = intrarectal administration, dose 50.0-qd mg/kg/d
[3] = intermittent injection (ip), dose 0.75 - qd mg/kg/d

Compound	Emax (TF-1 cells) [%]	activity compared with 101.113, in words (TF-1 cells)	other results
Nc1ccc(O)c(C(=O)O)c1 [5-ASA]	–	–	MPO (% of TNBS+Saline) (rats; [2]): 49 % of TNBS+Saline; histologic evaluation (median score) (rats; [2]): 3.3; macroscopic (median score) (rats; [2]): 1.5
CC(C)C[C@@H](NC(=O)[C@@H](CCC(=O)O)NC(=O)[C@H]1CCCN1C(=O)[C@H](NC(=O)[C@@H](Cc1ccc(O)cc1)NC(=O)[C@H](N)CCCNC(=N)N)[C@H](C)O)C(=O)O [API-101.113, RYTPEL]	70	–	–
CC(C)C[C@@H](NC(=O)[C@@H](CCC(=O)O)NC(=O)[C@H]1CCCN1C(=O)[C@H](NC(=O)[C@@H](Cc1c[nH]c2ccccc12)NC(=O)[C@H](N)CCCNC(=N)N)[C@H](C)O)C(N)=O [API-101.128, RWTPEL]	–	relatively decreased	–
CC(C)[C@@H](NC(=O)[C@@H](CCC(=O)O)NC(=O)[C@H]1CCCN1C(=O)[C@H](NC(=O)[C@@H](Cc1ccc(O)cc1)NC(=O)[C@H](N)CCCNC(=N)N)[C@H](C)O)C(N)=O [API-101.129, RYTPEV]	50	–	–
CC(C)C[C@@H](NC(=O)[C@@H](CCC(=O)O)NC(=O)[C@H]1CCCN1C(=O)[C@H](NC(=O)[C@@H](Cc1ccccc1)NC(=O)[C@H](N)CCCNC(=N)N)[C@H](C)O)C(N)=O [API-101.132, RFTPEL] (HELM PEPTIDE1{[dR].[dF].[dT].[dP].[dE].[dL].[am]}$$$$V2.0; N-terminus and C-terminus assumed)	35	relatively decreased	–
CC(C)C[C@@H](NC(=O)[C@@H](CCC(=O)O)NC(=O)[C@H]1CCCN1C(=O)[C@H](NC(=O)[C@@H](Cc1ccc(O)cc1)NC(=O)[C@H](N)CCCNC(N)=O)[C@H](C)O)C(N)=O [API-101.134, XYTPEL (X=Citrulline)]	10	–	–
CC(C)C[C@@H](NC(=O)[C@@H](CCC(=O)O)NC(=O)[C@H]1CCCN1C(=O)[C@H](NC(=O)[C@@H](Cc1ccc(O)cc1)NC(=O)[C@@H](N)CCCNC(=N)N)[C@H](C)O)C(N)=O [API-101.135, *RYTPEL]	63	–	–
CC(C)C[C@@H](NC(=O)[C@@H](CCC(=O)O)NC(=O)[C@H](NC(=O)[C@H](NC(=O)[C@@H](Cc1ccc(O)cc1)NC(=O)[C@@H](CCCNC(=N)N)NC(=O)[C@H]1CCCN1C(=O)[C@@H](C)N)[C@H](C)O)C(C)C)C(=O)N[C@H](C)C(=O)O [API-101]	–	–	IC50 (piglet pial vessels): 182 nM
C[C@@H]1C[C@H]2[C@@H]3CCC4=CC(=O)C=C[C@]4(C)[C@@]3(F)[C@@H](O)C[C@]2(C)[C@@]1(O)C(=O)CO [Dexamethasone, dexamethasone]	–	–	MPO (% of TNBS+Saline) (rats; [3]): 60 % of TNBS+Saline; histologic evaluation (median score) (rats; [3]): 3; macroscopic (median score) (rats; [3]): 0.87
KYTPEL [API-101.133]	–	little or no activity	Emax (%) (TF-1 cells): <10%
RFVPELA [API-101.127]	–	completely abolished the activity	–
XRYTPELA (X=Acetyl) (Ac-[dR][dY][dT][dP][dE][dL][dA]) [API-101.121]	–	–	activity of the peptide, in words [1]: completely lost
XYTPEL (X=Ornithine) [API-101.126]	–	little or no activity	Emax (%) (TF-1 cells): 0%
